Columns and labels:
human SSTR5 = biological target: T1, human SSTR5 (Homo sapiens, UniProt P35346); assay: Human SSTR5 antagonist activity using intracellular cAMP concentration as indicator (somatostatin 28, Test Example 2); format: cell-based; settings: 1 μM test compound; somatostatin 28 and 0.3 μM forskolin; CHO (dhfr-) cells expressing human SSTR5; HTRF cAMP; read-out: Inhibition rate (%) with respect to SSTR5 in concentration of 1 μM
T1 construct: expressed in transfected cells
Protocol: Evaluation of Human SSTR5 Antagonist Activity Using an Intracellular cAMP Concentration as an Indicator
Measurement of the intracellular cAMP concentration was performed using a HTRF cAMP dynamic 2 kit (manufactured by Cisbio). A test compound which was diluted with an assay buffer (5 mM HEPES (pH 7.5) (manufactured by Invitrogen Corp.), 0.1% fatty-acid free BSA (manufactured by Sigma-Aldrich, Inc.), HBSS (manufactured by Invitrogen Corp.) containing 500 μM IBMX (manufactured by Wako Pure Chemical Industries, Ltd) was added by 2 μL/well to a 384 well white plate (manufactured by Greiner) such that a final concentration become 1 μM. A frozen stock, which was stably expressed dihydrofolate reductase-deficient CHO (dhfr-) cells in which human SSTR5 gene (Accession No. NM001053) was melted in a thermostatic chamber at 37° C., and it was suspended on a medium of subculture (medium prepared from MEM alpha (manufactured by Wako Pure Chemical Industries, Ltd.), 10% dialyzed serum (manufacture by Gemini Co., Ltd.) and 50 μg/mL gentamicin (manufactured by Invitrogen Corp.). After centrifuging the cell suspension, the cell suspension was resuspended using the assay buffer, and the resultant was added to each well by 2 μL/well to be 4000 cells/well. After a test compound and cells were incubated for 15 minutes. An assay buffer which contains 0.1 nM of somatostatin 28 (manufactured by Toray Research Center) and 0.3 μM of forskolin (manufactured by Wako Pure Chemical Industries, Ltd) as a final concentration was added by […], and incubation was performed for 30 minutes at room temperature. Each of cAMP-d2 and anti-cAMP-cryptate was added by 3 μL/well, it was allowed to stand for 60 minutes at room temperature, and FRET (Fluorescence resonance energy transfer) intensity was measured using Multi-label reader Envision (manufactured by Perkin Elmer Inc.). Using the calibration curve prepared from the FRET intensity of well groups in which cAMP as arbitrary concentration was added to an assay buffer, FRET intensity of wells in which a test compound group was added was converted into cAMP concentration. Inhibitory activity of compounds was calculated using the following equation. Inhibitory activity (%)=(C−B)/(A−B)×100 A: cAMP concentration calculated from wells in which 0.3 μM of forskolin is added B: cAMP concentration calculated from wells in which 0.3 μM of forskolin and 1 nM of somatostatin 28 are added C: cAMP concentration wells in which 0.3 μM of forskolin, 1 nM of somatostatin 28 and 1 μM of test compound are added
Inhibition rates (%) are described in Table 3 with respect to SSTR5 in concentration of 1 μM of a test compound.

C57BL/6J mice = assay: Evaluation of glucose lowering effect (oral glucose load in high fat diet fed mice, Test Example 3); format: in vivo; settings: 3 mg/kg oral, male C57BL/6J mice on HFD, Mean ± SD, n = 6
Protocol: Evaluation of Glucose Lowering Effect
8-week-old male C57BL/6J mice were purchased from CLEA Japan, Inc. After feeding high fat diet (HFD; D12492, Research Diets, Inc.) for a week, weight of mice is measured a day before the experiment, and the mice were separated in groups based on the weight. On the day of experiment, vehicle (0.5% methyl cellulose solution) or test drug (0.5% methyl cellulose suspension) were orally administered 1 hour after fasting was started and glucose load was given orally 9 hours after fasting was started. Just before the glucose load, Blood Glucose (BG) was measured by drawing blood from the tail (pre), and BG was measured again from the tail 10 minutes, 30 minutes, 60 minutes and 120 minutes after the glucose load. All values were indicated with Mean±Standard Deviation (SD), and in the statistical analysis, Williams test was used for the case of equal variance and Shirley-Williams test was used for non-equal variance in the comparison of the vehicle group and test drug group.

hERG = hERG (Homo sapiens, UniProt Q12809); assay: hERG activity measurement by IonWorks Quattro (Test Example 4); format: cell-based; settings: 5 minutes exposure, CHO cells stably expressing hERG, IonWorks Quattro PPC mode
Protocol: hERG Activity Measurement by IonWorks Quattro
A cell strain CYL3038 having hERG stably expressed in CHO cells was purchased from Millipore LIMITED. A subculture of CYL3038 was prepared using Ham's F-12 medium containing 10% FBS and 500 μg/mL Geneticin, under the presence of 5% CO2 at 32° C. hERG current inhibition was measured by PPC mode of IonWorks Quattro (Molecular Devices, Inc.). As an extracellular fluid, PBS (+) was used. As an intracellular fluid, 20 mM HEPES buffer (pH 7.3) containing 140 mM KCl, 2 mM MgCl2 and 1 mM EGTA was used, and the cell was perforated by amphotericin. As the voltage protocol, holding potential was set to −80 mV, prepulsevoltage was set to 40 mV (2 seconds) and test pulsevoltage was set to −50 mV (2 seconds). Current values before and after addition of compound are respectively recorded as pre-compound hERG current and post-compound hERG current.

T1 sequence (P35346 whole entry): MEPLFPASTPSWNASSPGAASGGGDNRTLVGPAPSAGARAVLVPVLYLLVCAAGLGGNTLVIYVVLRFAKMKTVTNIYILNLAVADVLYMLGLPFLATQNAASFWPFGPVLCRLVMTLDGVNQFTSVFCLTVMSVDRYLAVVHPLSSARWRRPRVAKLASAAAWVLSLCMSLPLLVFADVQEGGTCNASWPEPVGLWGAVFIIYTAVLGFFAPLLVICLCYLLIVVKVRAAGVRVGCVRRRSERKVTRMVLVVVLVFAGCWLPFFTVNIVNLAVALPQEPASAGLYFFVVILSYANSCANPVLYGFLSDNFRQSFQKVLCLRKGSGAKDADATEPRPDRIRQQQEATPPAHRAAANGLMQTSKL
Chain of hERG (Q12809 whole entry): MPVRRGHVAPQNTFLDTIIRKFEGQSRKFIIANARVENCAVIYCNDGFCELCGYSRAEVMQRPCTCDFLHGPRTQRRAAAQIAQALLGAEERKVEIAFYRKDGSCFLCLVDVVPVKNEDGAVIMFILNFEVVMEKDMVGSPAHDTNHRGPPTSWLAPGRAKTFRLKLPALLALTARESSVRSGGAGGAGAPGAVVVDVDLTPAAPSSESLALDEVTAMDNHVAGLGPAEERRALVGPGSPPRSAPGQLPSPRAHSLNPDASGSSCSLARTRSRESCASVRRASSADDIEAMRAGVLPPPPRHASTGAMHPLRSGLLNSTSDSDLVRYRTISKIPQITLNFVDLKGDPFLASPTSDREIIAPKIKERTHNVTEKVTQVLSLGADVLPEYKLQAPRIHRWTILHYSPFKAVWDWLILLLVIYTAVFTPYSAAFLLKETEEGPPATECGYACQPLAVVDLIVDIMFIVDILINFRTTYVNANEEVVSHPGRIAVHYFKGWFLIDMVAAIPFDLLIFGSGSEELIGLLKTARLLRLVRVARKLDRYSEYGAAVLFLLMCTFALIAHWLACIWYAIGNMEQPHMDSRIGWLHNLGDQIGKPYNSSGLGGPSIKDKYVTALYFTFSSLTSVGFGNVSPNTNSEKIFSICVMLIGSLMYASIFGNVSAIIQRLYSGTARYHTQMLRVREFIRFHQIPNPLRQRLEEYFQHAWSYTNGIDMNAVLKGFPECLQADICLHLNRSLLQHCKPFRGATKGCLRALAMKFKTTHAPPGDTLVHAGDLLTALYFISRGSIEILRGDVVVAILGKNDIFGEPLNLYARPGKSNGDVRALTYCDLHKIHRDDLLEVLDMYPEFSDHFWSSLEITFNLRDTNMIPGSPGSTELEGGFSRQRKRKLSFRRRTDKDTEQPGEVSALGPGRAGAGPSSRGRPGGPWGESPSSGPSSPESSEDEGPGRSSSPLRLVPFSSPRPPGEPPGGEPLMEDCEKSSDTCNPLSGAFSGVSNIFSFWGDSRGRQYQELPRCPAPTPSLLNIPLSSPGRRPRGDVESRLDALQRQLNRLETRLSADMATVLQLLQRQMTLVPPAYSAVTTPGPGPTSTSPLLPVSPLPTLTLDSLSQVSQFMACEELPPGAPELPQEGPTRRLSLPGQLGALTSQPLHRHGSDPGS

SMILES | inhibition at 1 µM (human SSTR5) [%] | further results
COc1c(CN2CC3(CC(N4CCC(C)(C(=O)O)CC4)=NO3)C2)cc(C2CC2)c(-c2ccc(F)cc2)c1Cl [Example 238, 1-(2-((2-Chloro-6-cyclopropyl-4′-fluoro-3-methoxybiphenyl-4-yl)methyl)-5-oxa-2,6-diazaspiro[3.4]oct-6-en-7-yl)-4-methylpiperidine-4-carboxylic acid] | 99 | Blood Glucose (BG) 10 min (C57BL/6J mice; 10 minutes after glucose load): 261 ± 42; Blood Glucose (BG) 30 min (C57BL/6J mice; 30 minutes after glucose load): 350 ± 49; Blood Glucose (BG) 60 min (C57BL/6J mice; 60 minutes after glucose load): 345 ± 38; Blood Glucose (BG) 120 min (C57BL/6J mice; 120 minutes after glucose load): 188 ± 22; AUCpre-120 min (C57BL/6J mice; blood glucose AUC pre to 120 min after glucose load): 576 ± 52; Blood Glucose (BG) pre (C57BL/6J mice; just before glucose load): 148 ± 19; % hERG inhibition (10 μM) (hERG): 10%
CCOc1c(CN2CC3(CC(N4CCC(C)(C(=O)O)CC4)=NO3)C2)cc(C2CC2)c(C2CC2)c1F [Example 257, 1-(2-(4,5-Dicyclopropyl-2-ethoxy-3-fluorobenzyl)-5-oxa-2,6-diazaspiro[3.4]oct-6-en-7-yl)-4-methylpiperidine-4-carboxylic acid] | 117 | –
COc1c(CN2CC3(CC(N4CCC(C)(C(=O)O)CC4)=NO3)C2)cc(C2CC2)c(-c2ccc(F)cc2F)c1F [Example 259, 1-(2-((6-Cyclopropyl-2,2′,4′-trifluoro-3-methoxybiphenyl-4-yl)methyl)-5-oxa-2,6-diazaspiro[3.4]oct-6-en-7-yl)-4-methylpiperidine-4-carboxylic acid] | 90 | –
CCC1(C(=O)O)CCN(C2=NOC3(C2)CN(Cc2cc(C4CC4)c(-c4ccc(F)cc4F)c(Cl)c2OC)C3)CC1 [Example 262, 1-(2-((2-Chloro-6-cyclopropyl-2′,4′-difluoro-3-methoxybiphenyl-4-yl)methyl)-5-oxa-2,6-diazaspiro[3.4]oct-6-en-7-yl)-4-ethylpiperidine-4-carboxylic acid] | 100 | –
COc1c(CN2CC3(CC(N4CCC(C)(C(=O)O)CC4)=NO3)C2)cc(C2CC2)c(-c2ccc(F)cc2)c1F [Example 265, 1-(2-((6-Cyclopropyl-2,4′-difluoro-3-methoxybiphenyl-4-yl)methyl)-5-oxa-2,6-diazaspiro[3.4]oct-6-en-7-yl)-4-methylpiperidine-4-carboxylic acid] | 92 | % hERG inhibition (10 μM) (hERG): 18%
COc1c(CN2CC3(CC(N4CCC(C(=O)O)CC4)=NO3)C2)cc(C2CC2)c(-c2ccc(F)cc2)c1F [Example 266, 1-(2-((6-Cyclopropyl-2,4′-difluoro-3-methoxybiphenyl-4-yl)methyl)-5-oxa-2,6-diazaspiro[3.4]oct-6-en-7-yl)piperidine-4-carboxylic acid] | 88 | –

Further lines, with some results ahead:

inhibition at 1 µM (human SSTR5) [%] | SMILES | further results
121 | CC(C)Oc1c(CN2CC3(CC(N4CCC(C)(C(=O)O)CC4)=NO3)C2)cc(C2CC2)c(C2CC2)c1F [Example 256, 1-(2-(4,5-Dicyclopropyl-3-fluoro-2-isopropoxybenzyl)-5-oxa-2,6-diazaspiro[3.4]oct-6-en-7-yl)-4-methylpiperidine-4-carboxylic acid] | –
124 | COc1c(CN2CC3(CC(N4CCC(C)(C(=O)O)CC4)=NO3)C2)cc(C2CC2)c(-c2ccc(F)cc2F)c1Cl [Example 258, 1-(2-((2-Chloro-6-cyclopropyl-2′,4′-difluoro-3-methoxybiphenyl-4-yl)methyl)-5-oxa-2,6-diazaspiro[3.4]oct-6-en-7-yl)-4-methylpiperidine-4-carboxylic acid] | –
92 | CCOc1c(CN2CC3(CC(N4CCC(C(=O)O)CC4)=NO3)C2)cc(C2CC2)c(-c2ccc(F)cc2)c1F [Example 261, 1-(2-((6-Cyclopropyl-3-ethoxy-2,4′-difluorobiphenyl-4-yl)methyl)-5-oxa-2,6-diazaspiro[3.4]oct-6-en-7-yl)piperidine-4-carboxylic acid] | –

Reference: patent US9605000B2, “Spiro azetidine isoxazole derivatives and their use as SSTR antagonists” (Takeda Pharmaceutical Company Limited, priority 2013, dated 2017)
